As a reminder, the IC50 is the concentration that inhibits the measured activity by half.

Assay [1] has as its target T1, Kras and SOS1 (biotin-tagged human Kras loaded with GDP, His-tagged human SOS1) (Homo sapiens, UniProt P01116, G12D).
T1 construct: made in house; host or cells: E. coli (stated for Kras only)
The assay can be described thus: Protein-protein interaction inhibition between Kras and SOS1 (KrasGl2D-SOS PPI) using AlphaScreen. It is filed as binding. Conditions: AlphaScreen; biotin-tagged human Kras loaded with GDP, His-tagged human SOS1; read-out: KRAS G12D-SOS PPI IC50. A digest of the protocol:
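Energy transfer from nickel-chelate donor beads bound to His-SOS1 to streptavidin acceptor beads bound to biotin-Kras, expressed in E. coli and loaded with GDP after purification, was monitored. Donors were excited at 680 nm; singlet oxygen reaching acceptors gave emission read at 520-620 nm.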
For orientation: Alpha assays give light when donor and acceptor beads are brought close together.

The test system of assay [2] is Human pancreatic cancer cell line AsPC-1. The assay can be described thus: Measurement of AsPC-1 cell growth inhibition (AsPC-1 CGI). It is filed as cell-based. Conditions: 96 h. A digest of the protocol: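 AsPC-1 cells in 15% FBS RPMI-1640 were exposed to test compound for 96 hours at 37° C, with CellTiter-Glo as endpoint.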

Starred links: 1 amine or outer side, 2 acyl side, 3 side chain; linkers in the order of their positions; H or OH if unused. Positions of bridges follow the written chain, without caps; N, C: chain ends. Non-standard residues stand in square brackets, D forms with d. Residues, ends and D or L forms follow the SMILES beside them. *: point of attachment. hPhe(3-Cl-4-CF3) = N[C@@H](CCc1ccc(C(F)(F)F)c(Cl)c1)C(=O)O; NMePhe(4-CF3) = CN[C@@H](Cc1ccc(C(F)(F)F)cc1)C(=O)O; 3Oxa8azabicyclo(3.2.1)octane = C1CC2COCC1N2*; NMePhe(3-Cl) = CN[C@@H](Cc1cccc(Cl)c1)C(=O)O; NMePhe(4-Me) = CN[C@@H](Cc1ccc(C)cc1)C(=O)O; NMedβ3hAla = C[C@H](CC(=O)[*:2])N(C)[*:1]; NMeGly(cPent) = CN[C@H](C(=O)O)C1CCCC1; NMeGly(cBu) = CN[C@H](C(=O)O)C1CCC1; NMeY = CN[C@@H](Cc1ccc(O)cc1)C(=O)O; Gly(cPent) = N[C@H](C(=O)O)C1CCCC1; NMeCha = CN[C@@H](CC1CCCCC1)C(=O)O; NMeGly(cPr) = CN[C@H](C(=O)O)C1CC1; NMeChg = CN[C@H](C(=O)O)C1CCCCC1; NMeD = CN[C@@H](CC(=O)O)C(=O)O; NMeL = CN[C@@H](CC(C)C)C(=O)O; NMehSer = CN[C@@H](CCO)C(=O)O; NMeNle = CCCC[C@H](NC)C(=O)O; NMeNva = CCC[C@H](NC)C(=O)O; NMeV = CN[C@H](C(=O)O)C(C)C; d(β3hA) = C[C@@H](N)CC(=O)O; NMeAbu = CC[C@H](NC)C(=O)O; NMeS = CN[C@@H](CO)C(=O)O; NMeA = CN[C@@H](C)C(=O)O; Piperidide = C1CCN(*)CC1; Pyrrolidide = C1CCN(*)C1; Ac5c = NC1(C(=O)O)CCCC1; Aze = O=C(O)[C@@H]1CCN1; Sar = CNCC(=O)O; Propyl = CCC*

T1 sequence (P01116 1-188 isoform P01116-2 G12D): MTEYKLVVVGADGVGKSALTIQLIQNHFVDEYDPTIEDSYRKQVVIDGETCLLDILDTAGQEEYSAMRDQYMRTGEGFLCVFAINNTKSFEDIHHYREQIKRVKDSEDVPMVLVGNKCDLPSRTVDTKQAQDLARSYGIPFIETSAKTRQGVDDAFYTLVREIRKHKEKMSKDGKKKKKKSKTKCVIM

On to `CC[C@H](C)[C@@H]1NC(=O)[C@H](C2CC2)N(C)C(=O)C[C@@H](C(=O)N2CCCCC2)N(C)C(=O)[C@H](C(C)C)N(C)C(=O)C2(CCCC2)NC(=O)[C@@H]2CCCN2C(=O)[C@H](CCc2ccc(C(F)(F)F)c(Cl)c2)NC(=O)CN(C)C(=O)[C@H](CC2CCCCC2)N(C)C(=O)CN(C)C(=O)CN(C)C1=O` [Compound 980] ([NMeGly(cPr)]I[Sar][Sar][NMeCha][Sar][hPhe(3-Cl-4-CF3)]P[Ac5c][NMeV][NMeD]-Piperidide; lactam N-11), for which the concentration for half-maximal inhibition (IC50) in assay [1] is 3.8 nM; in assay [2], 100 to 500 nM.
The like results for `CCCOC[C@H]1C(=O)N(C)CC(=O)N[C@@H](CCc2ccc(C(F)(F)F)c(Cl)c2)C(=O)N2CCC[C@H]2C(=O)NC2(CCCC2)C(=O)N(C)[C@@H](C2CCCCC2)C(=O)N(C)[C@H](C(=O)N2C3CCC2COC3)CC(=O)N(C)[C@@H](CC)C(=O)N[C@@H]([C@@H](C)CC)C(=O)N(C)CC(=O)N(C)CC(=O)N1C` [Compound 1956] ([NMeAbu]I[Sar][Sar][NMeS](Propyl)[Sar][hPhe(3-Cl-4-CF3)]P[Ac5c][NMeChg][NMeD]-{3Oxa8azabicyclo(3.2.1)octane}; lactam N-11) were, in that order, 0.76 nM and 100 to 500 nM.
In the case of `CC[C@H](C)[C@@H]1NC(=O)[C@H](CC(C)C)N(C)C(=O)C[C@@H](C)NC(=O)[C@H](C(C)C)N(C)C(=O)C2(CCCC2)NC(=O)[C@@H]2CCCN2C(=O)[C@H](CCc2ccc(C(F)(F)F)c(Cl)c2)NC(=O)CN(C)C(=O)[C@H](Cc2ccc(OC)cc2)N(C)C(=O)CN(C)C(=O)CN(C)C1=O` [Compound 1605] (cyclo([Ac5c][NMeV][d(β3hA)][NMeL]I[Sar][Sar][NMeY](Me)[Sar][hPhe(3-Cl-4-CF3)]P)), the half-maximal inhibitory concentration (IC50) in assay [1] was 12 nM; in assay [2], 100 to 500 nM.
The corresponding values for `CC[C@H](C)[C@@H]1NC(=O)[C@H](CC(C)C)N(C)C(=O)C[C@@H](C(=O)N2CCCCC2)N(C)C(=O)[C@H](C2CCCC2)N(C)C(=O)C2(CCCC2)NC(=O)[C@@H]2CCCN2C(=O)[C@H](CCc2ccc(C(F)(F)F)c(Cl)c2)NC(=O)CN(C)C(=O)[C@H](CC2CCCCC2)N(C)C(=O)CN(C)C(=O)CN(C)C1=O` [Compound 1073] ([NMeL]I[Sar][Sar][NMeCha][Sar][hPhe(3-Cl-4-CF3)]P[Ac5c][NMeGly(cPent)][NMeD]-Piperidide; lactam N-11) are 2.1 nM and 20 to 50 nM.
Turning to `CC(C)C[C@H]1C(=O)N[C@@H](C2CCCC2)C(=O)N(C)CC(=O)N(C)CC(=O)N(C)[C@@H](CC2CCCCC2)C(=O)N(C)CC(=O)N[C@@H](CCc2ccc(C(F)(F)F)c(Cl)c2)C(=O)N2CCC[C@H]2C(=O)NC2(CCCC2)C(=O)N(C)[C@@H](C(C)C)C(=O)N(C)[C@H](C(=O)N2CCCCC2)CC(=O)N1C` [Compound 1064] ([NMeL][Gly(cPent)][Sar][Sar][NMeCha][Sar][hPhe(3-Cl-4-CF3)]P[Ac5c][NMeV][NMeD]-Piperidide; lactam N-11), the IC50 in assay [1] was 4.3 nM; in assay [2], 100 to 500 nM.
The corresponding values for `CC[C@H](C)[C@@H]1NC(=O)[C@H](CC(C)C)N(C)C(=O)C[C@@H](C(=O)N(C)C)N(C)C(=O)[C@H](C(C)C)N(C)C(=O)C2(CCCC2)NC(=O)[C@@H]2CCCN2C(=O)[C@H](CCc2ccc(C(F)(F)F)c(Cl)c2)NC(=O)CN(C)C(=O)[C@H](CC2CCCCC2)N(C)C(=O)[C@@H]2CCN2C(=O)[C@H](C)N(C)C1=O` [Compound 1728] ([NMeL]I[NMeA][Aze][NMeCha][Sar][hPhe(3-Cl-4-CF3)]P[Ac5c][NMeV][NMeD]-NMe2; lactam N-11) are 1.2 nM and 50 to 100 nM.
The corresponding values for `CC[C@H](C)[C@@H]1NC(=O)[C@H](CCOC)N(C)C(=O)C[C@@H](C(=O)N2CCCCC2)N(C)C(=O)[C@H](C2CCCCC2)N(C)C(=O)C2(CCCC2)NC(=O)[C@@H]2CCCN2C(=O)[C@H](CCc2ccc(C(F)(F)F)c(Cl)c2)NC(=O)CN(C)C(=O)[C@H](CC2CCCCC2)N(C)C(=O)CN(C)C(=O)CN(C)C1=O` [Compound 650] ([NMehSer](Me)I[Sar][Sar][NMeCha][Sar][hPhe(3-Cl-4-CF3)]P[Ac5c][NMeChg][NMeD]-Piperidide; lactam N-11) are 0.6 nM and 50 to 100 nM.
For the compound `CC[C@H](C)[C@@H]1NC(=O)[C@H](CC(C)C)N(C)C(=O)C[C@@H](C)N(C)C(=O)[C@H](C(C)C)N(C)C(=O)C2(CCCC2)NC(=O)[C@@H]2CCCN2C(=O)[C@H](CCc2ccc(C(F)(F)F)c(Cl)c2)NC(=O)CN(C)C(=O)[C@H](Cc2cccc(Cl)c2)N(C)C(=O)CN(C)C(=O)CN(C)C1=O` [Compound 1621] (cyclo([Ac5c][NMeV][NMedβ3hAla][NMeL]I[Sar][Sar][NMePhe(3-Cl)][Sar][hPhe(3-Cl-4-CF3)]P)), the IC50 in assay [1] is 7.2 nM; in assay [2], 50 to 100 nM.
The like results for `CC[C@H](C)[C@@H]1NC(=O)[C@H](CC(C)C)N(C)C(=O)C[C@@H](C(=O)N2C3CCC2COC3)N(C)C(=O)[C@H](C2CCCCC2)N(C)C(=O)C2(CCCC2)NC(=O)[C@@H]2CCCN2C(=O)[C@H](CCc2ccc(C(F)(F)F)c(Cl)c2)NC(=O)CN(C)C(=O)[C@H](Cc2ccc(C(F)(F)F)cc2)N(C)C(=O)CN(C)C(=O)CN(C)C1=O` [Compound 1932] ([NMeL]I[Sar][Sar][NMePhe(4-CF3)][Sar][hPhe(3-Cl-4-CF3)]P[Ac5c][NMeChg][NMeD]-{3Oxa8azabicyclo(3.2.1)octane}; lactam N-11) were, in that order, 1.1 nM and 50 to 100 nM.
For `CCC[C@H]1C(=O)N[C@@H]([C@@H](C)CC)C(=O)N(C)CC(=O)N(C)CC(=O)N(C)[C@@H](Cc2ccc(C)cc2)C(=O)N(C)CC(=O)N[C@@H](CCc2ccc(C(F)(F)F)c(Cl)c2)C(=O)N2CCC[C@H]2C(=O)NC2(CCCC2)C(=O)N(C)[C@@H](C2CCCCC2)C(=O)N(C)[C@H](C(=O)N2CCCC2)CC(=O)N1C` [Compound 2004] ([NMeNva]I[Sar][Sar][NMePhe(4-Me)][Sar][hPhe(3-Cl-4-CF3)]P[Ac5c][NMeChg][NMeD]-Pyrrolidide; lactam N-11), the IC50 in assay [1] is 0.33 nM; in assay [2], 20 to 50 nM.
Take `CC[C@H](C)[C@@H]1NC(=O)[C@H](C2CCC2)N(C)C(=O)C[C@@H](C(=O)N2CCCCC2)N(C)C(=O)[C@H](C2CCCCC2)N(C)C(=O)C2(CCCC2)NC(=O)[C@@H]2CCCN2C(=O)[C@H](CCc2ccc(C(F)(F)F)c(Cl)c2)NC(=O)CN(C)C(=O)[C@H](CC2CCCCC2)N(C)C(=O)CN(C)C(=O)CN(C)C1=O` [Compound 562] ([NMeGly(cBu)]I[Sar][Sar][NMeCha][Sar][hPhe(3-Cl-4-CF3)]P[Ac5c][NMeChg][NMeD]-Piperidide; lactam N-11): the results for the IC50 in assay [1] and in assay [2] were 0.56 nM and 50 to 100 nM, respectively.
The like results for `CCCC[C@H]1C(=O)N[C@@H]([C@@H](C)CC)C(=O)N(C)CC(=O)N(C)CC(=O)N(C)[C@@H](CC2CCCCC2)C(=O)N(C)CC(=O)N[C@@H](CCc2ccc(C(F)(F)F)c(Cl)c2)C(=O)N2CCC[C@H]2C(=O)NC2(CCCC2)C(=O)N(C)[C@@H](C2CCCCC2)C(=O)N(C)[C@H](C(=O)N2CCCCC2)CC(=O)N1C` [Compound 1740] ([NMeNle]I[Sar][Sar][NMeCha][Sar][hPhe(3-Cl-4-CF3)]P[Ac5c][NMeChg][NMeD]-Piperidide; lactam N-11) were, in that order, 0.79 nM and 50 to 100 nM.

For the origin of these results see patent publication US12371454B2, “Cyclic peptide compound having Kras inhibitory action” (priority 2019, dated 2025).
